This note sets out measurements from patent US20260152533A1, “COMBINATION INHIBITORS FOR TREATING FIBROSIS” (Memorial Sloan-Kettering Cancer Center, priority 2021, published 2026).

For test [1], the system named is pyruvate carboxylase (PC). In words: Stable isotope tracing in NIH-3T3 cells (surrogate for PC activity). The class given is cell-based, mouse. As to the method: Cells were plated in six-well cell culture plates at a concentration aimed to reach 0.5-1×10^6 cells at the time of harvest. For quantification of relative metabolite abundance, cells were cultured with glutamine-free DMEM containing different concentrations of L-glutamine and supplemented with 10% dialyzed FBS and in some experiments were treated with TGFβ for 48 hours. For the [U-^13C]and [3,4-^13C]glucose tracing experiments, cells were cultured as above, and in the last 8 hours media was replaced with DMEM without D-glucose and L-glutamine supplemented with 2 mM or 0.2 mM L-glutamine and 10 mM [U-^13C]or [3,4-^13C]D-glucose (Cambridge Isotope Laboratories) and 10% dialyzed FBS. For the [U-^13C]and [1-^13C]lactate tracing experiments, cells were cultured in 2 or 0.2 mM L-glutamine, 10 or 1 mM D-glucose in the presence or absence of 10 mM sodium lactate, and in the last 8 hours media was replaced with DMEM without D-glucose and L-glutamine supplemented with 2 mM or 0.2 mM L-glutamine, 10 or 1 mM D-glucose, 10 mM [U-^13C]or [1-^13C]sodium lactate (Cambridge Isotope Laboratories) and 10% dialyzed FBS. For relative quantification of metabolites by gas chromatography-mass spectroscopy (GC-MS), cells were washed briefly with PBS, which was then fully aspirated and metabolism was quenched by immediately adding 1 mL of 80:20 methanol:water stored at −80° C. containing 20 μM deuterated 2-hydroxyglutarate (d5-2HG) as an internal standard. For stable isotope tracing experiments, metabolism was quenched without the PBS washing step by adding 1 mL of 80:20 methanol:water as above. After overnight incubation at −80° C., the resulting extracts were scraped on dry ice, transferred into a 1.5 mL centrifuge tube, and centrifuged at 20,000 g for 20 minutes at 4° C. The supernatants were collected in clean tubes and dried in a vacuum evaporator (Genevac EZ-2 Elite) for 2 hours.
For [U-^13C]glucose tracing into proteinogenic amino acids, cells were cultured in 10% Gln in the presence or absence of TGFβ for 48 hours. In the last 24 hours, the media including all treatments was replaced with DMEM without L-glutamine and D-glucose and supplemented with 0.2 mM L-glutamine and 10 mM [U-^13C]D-glucose (Cambridge Isotope Laboratories) and 10% dialyzed FBS. For [U-^13C]lactate tracing into ECM, confluent cells were cultured in 10% Gln in the presence of 10 mM [U-^13C]sodium lactate for 6 days. The media was replaced every other day. ECM was decellularized as described above. Cells and ECM were washed with PBS, and proteins were precipitated with methanol:chloroform:water (1:1:1). The interphase was washed with methanol, and the dried pellet was subjected to acid hydrolysis with 6 N hydrochloric acid (HCl) and incubation at 95° C. for 16 hours. Samples were cooled to room temperature and centrifuged at 20,000 g for 10 minutes. The cleared supernatant was dried in a vacuum evaporator (Genevac EZ-2 Elite) for 2 hours, and abundance of aspartate, glutamate/glutamine or hydroxyproline isotopologues was measured by GC-MS as described below.
GC-MS measurements were performed as described before^11. Ions used for quantification of metabolite levels were as follows: d5-2HG m/z 354; citrate m/z 465; alpha-ketoglutarate m/z 304; succinate m/z 247; fumarate m/z 245; malate m/z 335; aspartate m/z 232; hydroxyproline m/z 332; proline m/z 216; glutamate m/z 246; glutamine m/z 245; lactate m/z 219; pyruvate m/z 174. All peaks were manually inspected and verified relative to known spectra for each metabolite. Peak identification and integration were done with MassHunter software vB.09 (Agilent Technologies). For relative quantification of cell samples, integrated peak areas were normalized to the internal standard d5-2HG and to the packed cell volume of each sample. Absolute quantification of hydroxyproline in tumor acid hydrolysates was performed against a standard curve of commercial trans-4-hydroxy-L-proline (Sigma). […]

Test [2] concerns mammary fibroblasts (MFBs). In words: Growth experiments, MFBs. It counts as cell-based, mouse. The following applies: 20% Gln, TGFβ. An excerpt: NIH-3T3 cells were obtained from ATCC (CRL-1658); 293 T cells were obtained from ATCC (CRL-3216). PSCs were isolated from C57BL/6 mice by differential centrifugation as previously described^49 and their mesenchymal origin was validated by analyzing the expression of various mesenchymal and epithelial markers. MFBs were isolated from FVB/N mice by differential centrifugation as previously described^50. DB7 mouse breast cancer cells were obtained from Alexander Borowsky (University of California Davis Comprehensive Cancer Center, Sacramento, CA, USA) through an MTA to Ohio State University (OSU). KPC (Kras^LSL-G12D; Trp53^LSL-R172H; Pdx1-Cre) mouse PDAC cells were a gift from Scott Lowe (Memorial Sloan Kettering Cancer Center. (MSKCC)). […]
A total of 0.2×10^5 cells/well were plated in 24-well culture plates and media was changed and treatments started 5-6 hours later. Cell numbers at the start of treatment (day 0 “d 0”) and 1, 2 and 3 days later were counted using the Multisizer 4e (Beckman) and normalized to the cell number at d 0. In co-culture assays, a fraction of the cell population was analyzed by flow cytometry for GFP expression, and the rest counted with the Multisizer 4e. The number of KPC-GFP cells was determined by multiplying the fraction of GFP+ cells with the total number of cells.

Regarding “TGFβ: transforming growth-factor beta; TGFβ-1 purchased from Peprotech”, the “m+3 labelling of aspartate and glutamate/glutamine incorporated into cellular protein” value in test [1] (10% Gln, TGFβ 48 hours (FIG. 10I)) is given as “reduced”. Besides, in test [1] (TGFβ 48 hours (FIG. 3E)), the “m+2 labelling of citrate, indicative of PDH activity” value was “increased”. The “m+3 and/or m+5 labelling of the metabolites analysed from [U-13C]Glc” value in test [1] (high and low Gln medium, TGFβ 48 hours (FIG. 3E)) is “reduced”. In test [1] (low Gln, TGFβ 48 hours (FIGS. 3G and 3H)), the “low-Gln increase of m+1 labelling of aspartate, malate and citrate from [3,4-13C]Glc (PC activity)” value is reported as “suppressed”. Besides, the cell proliferation result in test [2] is “unable to proliferate”.
